Experimental data from patent EP0563734A1, “9-fluoro-7-oxo-7H-pyrido(1,2,3-de)(1,4)benzoxazine carboxylic acids and esters and their use as antiviral agents” (BAYER AG, priority 1992, dated 1993).

What follows are compounds tested on Hepatitis B Virus (assay: HBV test system: HBV-DNA content in the supernatant of HBV-DNA-transfected hepatoma cells (HEP G2.2.15), after PEG precipitation, with a non-radioactive HBV genomic DNA probe). Settings: HepG2.2.15, 50%ige Hemmung der HBV-DNA Konzentration im Überstand, read-out: IC₅₀.
Format: cell-based
Text: Der Nachweis wurde in mit Hepatitis B Virus DNA transfizierten Hepatomzellen (HEP G2.2.15) geführt. Die Ergebnisse der unten aufgeführten Beispiele wurden zu dem in der folgenden Literaturangabe [Sells, M.A.; Chen, M.L., Acs, G., Proc. Natl. Acad. Sci. USA S. 1005 - 1009, Vol. 84 (1987] beschriebenen HBV-Testsystem ermittelt: Transfizierte Hepatomzellen (HEP G2.2.15) wurden mit verschiedenen Konzentrationen der jeweiligen Verbindung inkubiert. Durch Behandlung der transfizierten Hepatomzellinie HEP G2.2.15 mit den erfindungsgemäßen Verbindungen konnte die Reduktion der virusspezifischen HBV-DNA im Überstand sowie eine Reduktion des HBsAg Spiegels gezeigt werden. Es wurde weiter gefunden, daß die erfindungsgemäßen Verbindungen zu einer Reduktion der replikativen Intermediate der Hepatitisviren führen. Im Überstand der Zellkulturen wurde nach PEG Fällung der Gehalt an HBV-DNA bestimmt. Dies geschah unter Verwendung einer nicht radioaktiv markierten HBV genomischen DNA Probe [Pauly, P., 1982, Ph. D. Thesis, University of Göttingen, F.R.G.; Köchel et al., 1990, EMBL, Accession-Nr. X 51790]. Gleichzeitig erfolgte der Nachweis der Beeinflussung der HBsAg Bildung mittels eines kommerziell erhältlichen ELISA Tests. Die angegebenen IC₅₀-Werte beziehen sich auf die Substratkonzentrationen, die unter den oben aufgeführten Testbedingungen eine 50%ige Hemmung der HBV-DNA Konzentration im Überstand bewirken. Tabelle A
Gleichzeitig erfolgte die Bestimmung des möglicherweise vorhandenen cytotoxischen Einflusses der erfindungsgemäßen Verbindungen mittels Kristallviolettfärbung bzw. über den Einbau von radioaktiv markiertem Thymidin in die zelluläre DNA.

Structure (SMILES) | IC50
CCOC(=O)c1cn2c3c(c(F)c(F)cc3c1=O)OC(C(C)(C)CCCOc1ccccc1)=C2 [Beispiel VIII, 9,10-Difluor-2-(2-methyl-5-phenoxy-2-pentyl)-7-oxo-7H-pyrido[1,2,3-de][1,4]-benzoxazin-6-carbonsäureethylester] | 500 nM
CC1=COc2c(N3CCN(C4CC4)CC3)c(F)cc3c(=O)c(C(=O)O)cn1c23 [Beispiel 9, 10-(4-Cyclopropyl-piperazin-1-yl)-9-fluor-3-methyl-7-oxo-7H-pyrido-[1,2,3-de][1,4]benzoxazin-6-carbonsäure] | 100 nM
CCOC(=O)C1=Cn2cc(C(=O)OCC)c(=O)c3cc(F)c(F)c(c32)O1 [Beispiel I, 9,10-Difluor-2-ethoxycarbonyl-7-oxo-7H-pyrido[1,2,3-de][1,4]benzoxazin-6-carbonsäureethylester] | 500 nM
